Data: PubChem BioAssay (NCI)
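GI50: concentration for 50% inhibition of growth. Definition used: TGI = concentration required for complete inhibition of growth.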

Assays:
Assay in all cases: DTP human tumour cell line panel, 384-well format
TK-10 renal = system: TK-10 renal
IGROV1 ovarian = system: IGROV1 ovarian
RPMI-8226 leukemia = system: RPMI-8226 leukemia
U251 glioblastoma = system: U251 glioblastoma
SNB-19 CNS = system: SNB-19 CNS
OVCAR-4 ovarian = system: OVCAR-4 ovarian
HCT-15 colon = system: HCT-15 colon
COLO 205 colon = system: COLO 205 colon
HCC-2998 colon = system: HCC-2998 colon
NCI/ADR-RES ovarian = system: NCI/ADR-RES ovarian
SF-268 CNS = system: SF-268 CNS
UACC-257 melanoma = system: UACC-257 melanoma
SF-295 CNS = system: SF-295 CNS
MCF7 breast = system: MCF7 breast
SR leukemia = system: SR leukemia
UACC-62 melanoma = system: UACC-62 melanoma
LOX IMVI melanoma = system: LOX IMVI melanoma
HL-60(TB) leukemia = system: HL-60(TB) leukemia
NCI-H322M lung = system: NCI-H322M lung
NCI-H522 lung = system: NCI-H522 lung
SN12C renal = system: SN12C renal
BT-549 breast = system: BT-549 breast
EKVX NSCLC = system: EKVX NSCLC
T-47D breast = system: T-47D breast
KM12 colon = system: KM12 colon
PC-3 prostate = system: PC-3 prostate
OVCAR-5 ovarian = system: OVCAR-5 ovarian
MALME-3M melanoma = system: MALME-3M melanoma
SNB-75 CNS = system: SNB-75 CNS
M14 melanoma = system: M14 melanoma
MDA-MB-231 breast = system: MDA-MB-231 breast
DU-145 prostate = system: DU-145 prostate
NCI-H460 NSCLC = system: NCI-H460 NSCLC
A498 renal = system: A498 renal
ACHN renal = system: ACHN renal
HCT-116 colon = system: HCT-116 colon
MOLT-4 leukemia = system: MOLT-4 leukemia
HOP-62 NSCLC = system: HOP-62 NSCLC
SF-539 CNS = system: SF-539 CNS
NCI-H23 lung = system: NCI-H23 lung
MDA-MB-468 breast = system: MDA-MB-468 breast
RXF 393 renal = system: RXF 393 renal
OVCAR-3 ovarian = system: OVCAR-3 ovarian
A549 NSCLC = system: A549 NSCLC
HOP-92 NSCLC = system: HOP-92 NSCLC
MDA-MB-435 melanoma = system: MDA-MB-435 melanoma
NCI-H226 lung = system: NCI-H226 lung
SK-MEL-28 melanoma = system: SK-MEL-28 melanoma
SK-MEL-5 melanoma = system: SK-MEL-5 melanoma

CCNC(=O)C[C@@H]1N=C(c2ccc(Cl)cc2)c2cc(OC)ccc2-n2c(C)nnc21
GI50 (TK-10 renal): 0.48 µM | TGI (TK-10 renal): 28.6 µM | GI50 (IGROV1 ovarian): 0.394 µM | TGI (IGROV1 ovarian): 16.7 µM | GI50 (RPMI-8226 leukemia): 0.0747 µM | TGI (RPMI-8226 leukemia): 0.992 µM | GI50 (U251 glioblastoma): 9.26 µM | TGI (U251 glioblastoma): > 100 µM | GI50 (SNB-19 CNS): 1.63 µM | TGI (SNB-19 CNS): > 100 µM | GI50 (OVCAR-4 ovarian): 0.137 µM | TGI (OVCAR-4 ovarian): 0.899 µM | GI50 (HCT-15 colon): 0.613 µM | TGI (HCT-15 colon): 15 µM | GI50 (COLO 205 colon): 0.496 µM | TGI (COLO 205 colon): 15.6 µM | GI50 (HCC-2998 colon): 0.0861 µM | TGI (HCC-2998 colon): 10.8 µM | GI50 (NCI/ADR-RES ovarian): 11.4 µM | TGI (NCI/ADR-RES ovarian): 36.2 µM | GI50 (SF-268 CNS): 22.5 µM | TGI (SF-268 CNS): > 100 µM | GI50 (UACC-257 melanoma): 0.423 µM | TGI (UACC-257 melanoma): 30.3 µM | GI50 (SF-295 CNS): 21.6 µM | TGI (SF-295 CNS): > 100 µM | GI50 (MCF7 breast): < 0.01 µM | TGI (MCF7 breast): > 100 µM | GI50 (SR leukemia): < 0.01 µM | TGI (SR leukemia): 58 µM | GI50 (UACC-62 melanoma): < 0.01 µM | TGI (UACC-62 melanoma): > 100 µM | GI50 (LOX IMVI melanoma): 0.196 µM | TGI (LOX IMVI melanoma): 0.551 µM | GI50 (HL-60(TB) leukemia): 0.0257 µM | TGI (HL-60(TB) leukemia): 0.131 µM | GI50 (NCI-H322M lung): 0.62 µM | TGI (NCI-H322M lung): 34.6 µM | GI50 (NCI-H522 lung): 0.213 µM | TGI (NCI-H522 lung): 5.39 µM | GI50 (SN12C renal): 0.742 µM | TGI (SN12C renal): > 100 µM | GI50 (BT-549 breast): 0.375 µM | TGI (BT-549 breast): 23.3 µM | GI50 (EKVX NSCLC): 25.4 µM | TGI (EKVX NSCLC): > 100 µM | GI50 (T-47D breast): 15.4 µM | TGI (T-47D breast): > 100 µM | GI50 (KM12 colon): 5.56 µM | TGI (KM12 colon): > 100 µM | GI50 (PC-3 prostate): 0.714 µM | TGI (PC-3 prostate): > 100 µM | GI50 (OVCAR-5 ovarian): 0.296 µM | TGI (OVCAR-5 ovarian): 18.7 µM | GI50 (MALME-3M melanoma): 12.3 µM | TGI (MALME-3M melanoma): 65.9 µM | GI50 (SNB-75 CNS): 28.3 µM | TGI (SNB-75 CNS): > 100 µM | GI50 (M14 melanoma): 2.35 µM | TGI (M14 melanoma): 55.2 µM | GI50 (MDA-MB-231 breast): 5.87 µM | TGI (MDA-MB-231 breast): > 100 µM | GI50 (DU-145 prostate): 12.8 µM | TGI (DU-145 prostate): > 100 µM | GI50 (NCI-H460 NSCLC): 4.05 µM | TGI (NCI-H460 NSCLC): > 100 µM | GI50 (A498 renal): 0.662 µM | TGI (A498 renal): 81.7 µM | GI50 (ACHN renal): 3.55 µM | TGI (ACHN renal): > 100 µM | GI50 (HCT-116 colon): 4.23 µM | TGI (HCT-116 colon): > 100 µM | GI50 (MOLT-4 leukemia): 0.599 µM | TGI (MOLT-4 leukemia): 15.7 µM | GI50 (HOP-62 NSCLC): 0.246 µM | TGI (HOP-62 NSCLC): 13.8 µM | GI50 (SF-539 CNS): 2.25 µM | TGI (SF-539 CNS): > 100 µM | GI50 (NCI-H23 lung): 2.77 µM | TGI (NCI-H23 lung): > 100 µM | GI50 (MDA-MB-468 breast): 8.18 µM | TGI (MDA-MB-468 breast): > 100 µM | GI50 (RXF 393 renal): 26 µM | TGI (RXF 393 renal): > 100 µM | GI50 (OVCAR-3 ovarian): 0.324 µM | TGI (OVCAR-3 ovarian): 14.8 µM | GI50 (A549 NSCLC): 7.42 µM | TGI (A549 NSCLC): > 100 µM | GI50 (HOP-92 NSCLC): 26.4 µM | TGI (HOP-92 NSCLC): > 100 µM | GI50 (MDA-MB-435 melanoma): 8.67 µM | TGI (MDA-MB-435 melanoma): 77.6 µM | GI50 (NCI-H226 lung): 1.63 µM | TGI (NCI-H226 lung): 27.7 µM | GI50 (SK-MEL-28 melanoma): 14.1 µM | TGI (SK-MEL-28 melanoma): > 100 µM | GI50 (SK-MEL-5 melanoma): 0.492 µM | TGI (SK-MEL-5 melanoma): 18.2 µM
